# Measurements as given in US20250319021A1, “COMPOSITION OF HYDROGEL LOADED WITH HORMONE” (VITALTE LIFESCIENCES INC., priority 2024, published 2025).
# How the values were obtained:
# [1] = cited from earlier work
# [2] = T release rate comparison in saline incubation media; type: physicochemical; conditions: 2, 4 and 6 hours
# Experimental: In order to compare the release rate results of hydrogel encapsulated T to pelleted T, larger gels had to be prepared as the T pellets which the hydrogels are intended to replace are 25 mg, where the E2 pellets are merely 6 mg. Thus, approximately 83 mg of hydrogel at 30% T loading and 1% HA were prepared. In order to achieve even or consistent crosslinking in these much larger hydrogel samples, Likarda's patented micromolds (shown in FIG. 21) were employed. After formation, the encapsulated T was removed from the molds and placed in tubes to be rotated for an hour. The encapsulated T hydrogels were then removed from the tubes and stored in Dulbecco's PBS buffer. The large hydrogel blocks encapsulating T were then tested and compared to 25 mg T pellets and micronized T powder.
# The T powder was produced as a 2.5 mg/mL slurry in buffer to reach the near saturation point of T in the buffer. Samples of the T powder slurry were removed from only the top layer of the slurry fluid to avoid aspirating T particles in the slurry that may have precipitated at to the bottom. T pellets were collected directly from the vials in which they were stored. The 83 mg hydrogels containing 30% T were collected from Dulbecco's PBS buffer, rinsed, and dried. Each of the collected samples was then placed in a separate container of incubation media (saline in this instance) for the release studies. […]
Compound,solubility in water compared to E2 [1],T release level / approximate saturation level of T in saline [2]
"C[C@]12CC[C@H]3[C@@H](CCC4=CC(=O)CC[C@@]43C)[C@@H]1CC[C@@H]2O [Testosterone (T), Testosterone]",much higher solubility factor in water compared to E2,–
"C[C@]12CC[C@H]3[C@@H](CCC4=CC(=O)CC[C@@]43C)[C@@H]1CC[C@@H]2O [T powder, Testosterone]",–,about 1.5 mg/L
